Values of other authors in patent publication US20230285491A1, “COMPOSITION FOR PREVENTION OF DUMPING SYNDROME IN A POST-BARIATRIC SURGERY SETTING” (METAGENICS, INC., priority 2020, published 2023).

Biological target: T1, GLP-1 receptor (Homo sapiens, UniProt P43220)
T1 construct: GLP-1 receptor antagonism prevented hypoglycemia in all patients and reversed neuroglycopenic symptoms; host or cells: gastric bypass patients (in vivo, endogenous receptor)
Conditions: gastric bypass patients

T1 sequence (P43220 24-463): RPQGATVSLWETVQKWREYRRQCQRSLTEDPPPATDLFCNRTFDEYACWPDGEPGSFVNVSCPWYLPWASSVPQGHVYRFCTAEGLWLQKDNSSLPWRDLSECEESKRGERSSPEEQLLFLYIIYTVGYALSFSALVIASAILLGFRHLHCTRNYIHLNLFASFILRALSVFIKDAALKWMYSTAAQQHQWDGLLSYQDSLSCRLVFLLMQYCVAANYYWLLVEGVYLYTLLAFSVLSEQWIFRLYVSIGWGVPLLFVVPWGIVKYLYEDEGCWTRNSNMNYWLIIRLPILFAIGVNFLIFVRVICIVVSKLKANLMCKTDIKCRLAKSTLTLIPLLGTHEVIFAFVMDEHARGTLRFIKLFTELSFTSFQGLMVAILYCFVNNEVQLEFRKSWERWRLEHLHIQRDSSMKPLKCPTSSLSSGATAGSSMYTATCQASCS

With Exendin-(9-39) as the substance, how does the “effect on postprandial hypoglycemic and hyperinsulinemic events” value read?
Its value is “corrected postprandial hypoglycemic and hyperinsulinemic events”.
